Results as given in patent US9114120B2, “Therapeutical method for the treatment of the Leber optic neuropathy” (SIGMA-TAU INDUSTRIE FARMACEUTICHE RIUNITE, S.P.A., priority 2010, dated 2015).

Test system: Patients with LHON
Assay: Example 2: 12-month double blind, placebo controlled study of acetyl L-carnitine, visual acuity
Type: in vivo, human
Conditions: for Visual Acuity Change, Diff / Visual Acuity Recovery, Diff: ALC 2 g/day orally vs placebo
Excerpt: 30 Patients with LHON were enrolled. To be eligible, participants were required to meet the following inclusion criteria: both sexes, age ≧20 years and ≦60 years, diagnosis of Leber's optic neuropathy assessed by the presence of at least one of the three most common LHON pathogenic mutations (11778/ND4, 3460/ND1, 14484/ND6), and duration of disease greater than 2 years.
The study treatment trial was 12-month, double blind, placebo controlled with participants randomized to receive acetyl L-carnitine (2 g/day orally) or placebo.
The primary efficacy end point for the study was the best recovery in visual acuity in either eye measured by change in logMAR (logarithm of Minimal Angle of Resolution) in study eyes comparing the acetyl-L-carnitine treatment group with the placebo treatment control group 6 and 12 months after enrolment. Secondary efficacy outcome was the patients' best visual acuity at 6 and 12 months compared to best visual acuity at baseline.

CC(=O)O[C@H](CC(=O)[O-])C[N+](C)(C)C [ALC, acetyl-L-carnitine]
Visual Acuity Change, Diff (T6 (6 months), p < 0.05): Diff = 14 letters
Visual Acuity Recovery, Diff (T6 (6 months), p < 0.05): Diff = 10 letters
Visual Acuity Change, Diff (T12 (12 months), p < 0.01): Diff = 18 letters
Visual Acuity Recovery, Diff (T12 (12 months), p < 0.01): Diff = 12 letters
improvement of visual acuity recovery (in words) (vs placebo, after 6 months (T6) and 12 months (T12)): significant difference in improvement
visual acuity of eyes (in words) (vs placebo, both time points T6 and T12): significantly improved
